Test results: PMC9456400 (International Journal of Molecular Sciences, 2022)

Experiments:
[1] = cited from earlier work
HepG2 cells = experiment: Oil Red O staining of neutral lipids; assay type: cell-based, human; conditions: HepG2, acute exposure 48 h; silibinin 100 μmol/L as co-treatment with lorlatinib
Method: To confirm these findings, we employed an independent in vitro model of fatty liver disease involving non-tumorigenic HepG2 cells, which are routinely employed as an inducible fatty liver cell model to screen for therapeutic drugs to eliminate lipid accumulation.
(§1) For assessment of neutral lipid formation, cells were washed in PBS, fixed with 4% paraformaldehyde for 30 min, washed in distilled water, and then briefly incubated in 60% isopropanol. Following equilibration, cells were stained with a working solution (60%) of Oil Red O for 20 min. An Oil Red O stock solution was prepared by dissolving 0.35% w/v Oil Red O in 100 mL 100% isopropanol. HCS LipidTOX™ Green Neutral Lipid Stain (Invitrogen; Cat. #H34475) was employed as a second staining cocktail for visualization of intracellular neutral lipids. Formaldehyde fixation and preparing/using the labeling solution was carried out as per the manufacturer’s instructions.

[2] = system: H2228 NSCLC cell line (ALK rearrangement variant 3a/b); experiment: MTT cell viability assay; conditions: read-out: IC50 (cell viability)
Method: (§2) Cell viability effects of lorlatinib were determined using the colorimetric MTT (3-4,5-dimethylthiazol-2-yl-2,5-diphenyl-tetrazolium bromide) reduction assay. Dose–response curves to graded concentrations of lorlatinib were plotted as a percentage of the control cell absorbance, which was obtained from control cells containing the vehicle (DMSO v/v) processed simultaneously. For each treatment, cell viability was evaluated using the following equation: (OD570 of the treated sample/OD570 of the untreated sample) × 100.

Huh-7 cells [3] = experiment: Oil Red O and LipidTOX staining of neutral lipids; assay type: cell-based, human; conditions: Huh-7, chronic exposure 7 days; silibinin 10 μmol/L as co-treatment with lorlatinib
Method: We first employed a conventional index of fatty liver disease––the intracellular accumulation of neutral lipids (steatosis)––to confirm the ability of lorlatinib to trigger hypertriglyceridemia and hypercholesteremia.
as §1

Huh-7 cells [4] = experiment: MTT cell viability assay; assay type: cell-based; conditions: Homo sapiens; Huh-7, MTT
Method: as §2

[5] = cited from earlier work; remark: listed apart in the source
[6] = single 100 mg oral dose ref 46, 47
[7] = pooled safety analysis (n = 295) ref 14, 15

C[C@H]1Oc2cc(cnc2N)-c2c(nn(C)c2C#N)CN(C)C(=O)c2ccc(F)cc21 [lorlatinib, (10R)-7-amino-12-fluoro-2,10,16-trimethyl-15-oxo-10,15,16,17-tetrahydro-2H-8,4-(metheno)pyrazolo [4,3-h][2,5,11]-benzoxadiazacyclotetradecine-3-carbonitrile]
Fraction metabolized during first-pass hepatic or pre-systemic metabolism ([1]; human, in vivo): 12% | Hepatic extraction ratio ([1]; human, in vivo): < 30% | Peak plasma concentration [1, 6]: > 2 µmol/L | Time to peak plasma concentration [1, 6]: 0.5 to 4 h | Accumulation of neutral lipids (lipid droplets) (HepG2 cells): greater number of larger lipid droplets than untreated cells | IC50 [2]: 0.9 ± 0.2 µM | Accumulation of neutral lipids (lipid droplets) (Huh-7 cells [3]): accumulated large amounts of lipid droplet-like neutral lipids | IC50 (Huh-7 cells [4]): 22 ± 5 µM | Incidence of hypercholesteremia and hypertriglyceridemia ([5]; lung cancer patients): > 80% | Hyperlipidemia, median time to onset ([5]; patients): 15 days | Frequency of grade 3 or 4 elevations in total cholesterol and triglycerides (both) ([5]; phase 2 study B7461001 (NCT01970865) ref 2): 16% | Incidence of hypercholesteremia [5, 7]: 61% | Incidence of hypertriglyceridemia [5, 7]: 82%
